Test results reported in patent publication US7214669B2, “Tetracycline derivatives and methods of use thereof” (Tetragenex Pharmaceuticals, Inc., priority 2001, dated 2007).
Values joined by “and” are separate entries in the source; they are usually repeats but may differ in a detail not shown here. Identical values can stand only once.

Legend:
[1] = Dunning MAT LyLu tumor model, weekly body weight; assay type: in vivo; settings: compared to the control group
Procedure: (§2) Fresh dosing solutions containing 10 mg/ml of each test article in 2% carboxymethylcellulose were prepared daily and used in the testing.
(§3) Three groups of animals (10/group) were dosed by gavage with either vehicle, or one of the two analogs daily for three weeks, and then three times per week until death or sacrifice. Dosing was begun seven days prior to implantation of the MAT LyLu tumor cells by tail vein injection. Approximately 0.1 ml of tumor cell suspension was injected into one of the lateral tail veins. The dose to be chosen was based on two factors: (1) efficacy and (2) morbidity associated with the analog, if any.

[2] = molecular target: Human recombinant MMP3 (Homo sapiens, UniProt P08254); assay: MMP3 (Stromelysin 1) inhibition, 14C casein release; assay type: biochemical; settings: 37° C., 16 hours; read-out: MMP-3 inhibitory activity, IC50
Procedure: Protocol for Measuring MMP3 (Stromelysin 1) Inhibition
• 100 μg ^14C casein (7000 dpm) • 50 mM Tris HCl, pH 7.9 • 15 mM CaCl2, 0.02% azide • Human recombinant MMP3, 0.25–1.0 nM • ±tetracycline (up to 1 mM) in a total volume of 250 μl.
Incubations were at 37° C. for 16 hours. The reaction was stopped by the addition of 500 μl cold 18% TCA and standing on ice for 15 minutes. TCA precipitates were removed by centrifugation at 10,000 g for 10 minutes at 4° C. and 200 μl supernatant was taken for scintillation counting. Only data derived from within the linear part of the assay (10–60% lysis) were utilized. The percentage inhibition of MMP3 by each concentration of the candidate tetracycline was plotted to derive the IC50 value, using linear regression analysis.

[3] = tested on: MAT LyLu tumor; assay: Dunning MAT LyLu tumor model, survival; assay type: in vivo, Copenhagen rats; settings: for Surviving Number: 10/group, dosed by gavage
Procedure: as §2, §3

[4] = molecular target: T1, Human recombinant MMP1 (Homo sapiens, UniProt P03956); assay: MMP1 (Collagenase-1) inhibition, 14C collagen release; assay type: biochemical; settings: 35° C., 5 hours; read-out: MMP-1 inhibitory activity, IC50
T1 sequence (P03956 100-469): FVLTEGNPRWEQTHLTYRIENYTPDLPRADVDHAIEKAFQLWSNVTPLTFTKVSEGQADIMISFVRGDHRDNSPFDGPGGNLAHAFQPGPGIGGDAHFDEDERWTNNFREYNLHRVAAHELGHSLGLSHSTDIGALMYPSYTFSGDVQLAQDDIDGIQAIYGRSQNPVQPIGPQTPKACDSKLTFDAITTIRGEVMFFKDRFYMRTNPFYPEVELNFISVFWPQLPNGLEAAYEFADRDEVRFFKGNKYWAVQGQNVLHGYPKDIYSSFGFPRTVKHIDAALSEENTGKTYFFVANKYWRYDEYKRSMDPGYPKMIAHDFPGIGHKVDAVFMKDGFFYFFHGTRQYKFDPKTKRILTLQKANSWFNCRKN
Procedure: Protocol for Measuring MMP1 (Collagenase-1) Inhibition by Tetracycline Derivatives
MMP1 activity was determined by the release of soluble ^14C labelled collagen fragments from ^14C acetylated rat skin type I collagen (Methods in Enzymology 80 711, 1981).
• 100 μg ^14C labelled rat skin type I collagen (5–6000 dpm) • 50 mM Tris HCl pH 7.9 • 15 mM CaCl2 0.02% azide • Human recombinant MMP1 3–4 nM • ±Tetracycline (up to 1 mM) in a total volume of 300 μl.
Incubations were at 35° C. for 5 hours. Uncleaved collagen fibrils (which form within the first 10 minutes) were removed by centrifugation at 10,000 g, 4° C., 10 minutes. 200 μl supernatant were counted in Packard Opti Phase Supermix scintillation fluid using a scintillation counter. Only data derived from within the linear part of the assay (10–70% lysis of the collagen) were utilized. Based on percentage inhibition of the activity of MMP1 alone by a range of concentrations of each sample, the IC50 value for each tetracycline was calculated by linear regression analysis.

[5] = molecular target: T2, MMP2 (Gelatinase A) (Homo sapiens, UniProt P08253); assay: MMP2 (Gelatinase A) inhibition, 14C gelatin release; assay type: biochemical; settings: 37° C., 16 hours; read-out: MMP-2 inhibitory activity, IC50
T2 sequence (P08253 110-660): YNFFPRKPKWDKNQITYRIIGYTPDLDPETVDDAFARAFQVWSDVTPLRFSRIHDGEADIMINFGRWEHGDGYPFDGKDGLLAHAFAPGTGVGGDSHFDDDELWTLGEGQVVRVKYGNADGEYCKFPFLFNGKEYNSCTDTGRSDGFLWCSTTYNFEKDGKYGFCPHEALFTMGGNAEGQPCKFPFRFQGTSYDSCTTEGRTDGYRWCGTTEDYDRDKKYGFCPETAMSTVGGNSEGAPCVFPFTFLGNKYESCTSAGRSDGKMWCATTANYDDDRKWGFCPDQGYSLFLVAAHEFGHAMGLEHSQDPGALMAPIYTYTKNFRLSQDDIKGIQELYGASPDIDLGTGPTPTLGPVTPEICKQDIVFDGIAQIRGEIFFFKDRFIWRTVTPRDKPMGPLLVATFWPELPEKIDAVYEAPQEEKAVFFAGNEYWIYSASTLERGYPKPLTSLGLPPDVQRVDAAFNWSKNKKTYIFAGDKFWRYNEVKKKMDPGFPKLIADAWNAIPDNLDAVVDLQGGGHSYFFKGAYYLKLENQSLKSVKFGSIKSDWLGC
Procedure: Protocol for Measuring MMP2 (Gelatinase A) Inhibition
MMP2 activity was determined by the release of trichloracetic acid, TCA, soluble fragments from ^14C acetylated rat skin type I gelatin (Methods in Enzymology 248, 470, 1995. Biochem. J. 195, 1981)
• 100 μg ^14C labelled gelatin (type I collagen denatured 60° C. 20 min) • 50 mM Tris HCl pH 7.9 • 15 mM CaCl2, 0.02% azide • Human recombinant MMP1, 0.1–0.5 nM • ±Tetracycline (up to 1 MM) in a total volume of 250 μl.
Incubations were set at 37° C. for 16 hours. The reaction was stopped by cooling the incubations and addition of 50 μl cold 90% (w/v) trichloracetic acid with careful mixing. TCA precipitation was allowed to proceed for 15 minutes at 4° C. prior to cetrifugation at 10,000 g for 10 minutes at 4° C. 200 μl of the TCA supernatant was taken for the determination of radioactive content by scintillation counting (Packard Opti Phase Supermix scintillation fluid). Only data derived from within the linear part of the assay (10–70% lysis) were utilized. The percentage inhibition of MMP2 by each tetracycline concentration was plotted to derive the IC50 value, using linear regression analysis.

[6] = molecular target: Human recombinant MMP14 (Homo sapiens, UniProt P50281); assay: MMP14 (MTI-MMP) inhibition, 14C collagen release; assay type: biochemical; settings: 35° C., 15 hours; read-out: MMP-14 inhibitory activity, IC50
[7] = molecular target: Human recombinant MMP9 (Homo sapiens, UniProt P14780); assay: MMP9 (Gelatinase B) inhibition, 14C gelatin release; assay type: biochemical; settings: 37° C., 16 hours; read-out: MMP-9 inhibitory activity, IC50
Procedure: Protocol for Measuring MMP9 (Gelatinase B) Inhibition
MMP9 activity was determined by the release of trichloracetic acid, TCA soluble fragments from ^14C acetylated rat skin type I (Methods in Enzymology 248, 470, 1995. Biochem. J. 195, 1981)
• 100 μg ^14C labelled gelatin (collagen denatured 60° C. 20 min) • 50 mM Tris HCl pH 7.9 • 15 mM CaCl2, 0.02% azide • Human recombinant MMP9, 1.2–2 nM • ±Tetracycline (up to 1 mM) in a total volume of 250 μl.
Incubations were at 37° C. for 16 hours. The incubations were stopped by cooling the incubations and addition of 50 μl cold 90% (w/v) trichloracetic acid with careful mixing. TCA precipitation was allowed to proceed for 15 minutes at 4° C. prior to centrifugation at 10,000 g for 10 minutes at 4° C. 200 μl of the TCA supernatant was taken for the determination of radioactive content by scintillation counting (Packard Opti Phase Supermix scintillation fluid). Only data derived from within the linear part of the assay (10–70% lysis) were utilized. The percentage inhibition of MMP9 by each tetracycline concentration were plotted to derive the IC50 value.

[8] = molecular target: T3, Human recombinant MMP7 (Homo sapiens, UniProt P09237); assay: MMP7 (Matrilysin) inhibition, 14C casein release; assay type: biochemical; settings: 37° C., 16 hours; read-out: MMP-7 inhibitory activity, IC50
T3 sequence (P09237 95-267): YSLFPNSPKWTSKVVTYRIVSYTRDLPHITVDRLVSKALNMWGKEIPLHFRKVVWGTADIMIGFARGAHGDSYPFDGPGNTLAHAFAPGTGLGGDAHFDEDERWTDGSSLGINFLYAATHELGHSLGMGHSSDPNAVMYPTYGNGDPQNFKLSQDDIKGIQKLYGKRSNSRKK
Procedure: MMP7 activity was determined by the release of trichloracetic acid, TCA, soluble fragments from ^14C acetylated β casein (Sigma) as described in Methods in Enzymology 248, 451 (1995).
• 100 μg ^14C casein (7000 dpm) • 50 mM Tris HCl, pH 7.9 • 15 mM CaCl2, 0.02% azide • Human recombinant MMP7, 1.5 nM • ±tetracycline (up to 1 mM) in a total volume of 250 μl.
Incubations were at 37° C. for 16 hours. The incubation was stopped by the addition of 500 μl cold 18% TCA and standing on ice for 15 minutes. TCA precipitates were removed by centrifugation at 10,000 g for 10 minutes at 4° C., and 200 μl supernatant was taken for scintillation counting. Only data derived from within the linear part of the assay (10–60% lysis) were utilized. The percentage inhibition of MMP7 by each concentration of the candidate tetracycline were plotted to derive the IC50 value.

[9] = tested on: Arp-1 human myeloma cancer cells; assay: Membrane Invasion Culture System (MICS) chemo-invasion assay; assay type: cell-based; settings: 24 hours, + = increased invasiveness
In short: (§1)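 Fifty thousand cells were seeded above a 35 μm laminin/collagen IV/gelatin barrier on a 10 μm-pore filter, with serum-free RPMI plus 50% fibroblast-conditioned medium below as chemoattractant. Compound at 1, 10 or 25 μg/ml, or DMSO vehicle, was present for 24 h. Invaded cells were collected, Wright-stained and counted over 5 fields.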

[10] = tested on: PC-3 ML human prostate cancer cells; assay: as above; assay type: cell-based; settings: 10 ug/mL; 24 hours; + = increased invasiveness
In short: as §1

[11] = tested on: RPMI-8226 human myeloma cancer cells; assay: as above; assay type: cell-based; settings: 24 hours, + = increased invasiveness
In short: as §1

[12] = tested on: C8161 human melanoma cells; assay: as above; assay type: cell-based; settings: 25 ug/mL; 24 hours; + = increased invasiveness
In short: as §1

[13] = tested on: Ark human myeloma cancer cells; assay: as above; assay type: cell-based; settings: 1 ug/mL; 24 hours; + = increased invasiveness
In short: as §1

[14] = tested on: MDA-MB-231 human breast cancer cells; assay: as above; assay type: cell-based; settings: 10 ug/mL; 24 hours; + = increased invasiveness
In short: as §1

Human recombinant MMP9, sequence (P14780 94-707): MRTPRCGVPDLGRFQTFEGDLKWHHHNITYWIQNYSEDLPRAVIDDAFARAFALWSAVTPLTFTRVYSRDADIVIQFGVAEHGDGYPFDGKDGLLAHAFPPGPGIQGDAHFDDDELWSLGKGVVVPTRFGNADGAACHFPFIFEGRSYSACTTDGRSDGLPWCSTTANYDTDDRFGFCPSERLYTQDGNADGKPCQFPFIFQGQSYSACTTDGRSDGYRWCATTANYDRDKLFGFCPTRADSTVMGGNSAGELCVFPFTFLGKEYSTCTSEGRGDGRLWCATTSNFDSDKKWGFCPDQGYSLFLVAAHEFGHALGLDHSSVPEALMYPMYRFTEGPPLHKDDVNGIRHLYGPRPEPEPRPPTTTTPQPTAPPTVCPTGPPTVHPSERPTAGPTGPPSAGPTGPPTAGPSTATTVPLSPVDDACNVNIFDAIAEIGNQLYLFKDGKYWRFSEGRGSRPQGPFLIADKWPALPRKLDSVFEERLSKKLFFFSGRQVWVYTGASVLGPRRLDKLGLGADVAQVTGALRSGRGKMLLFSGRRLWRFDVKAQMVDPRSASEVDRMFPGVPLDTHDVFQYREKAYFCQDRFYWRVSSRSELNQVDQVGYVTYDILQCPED
Human recombinant MMP3, sequence (P08254 100-477): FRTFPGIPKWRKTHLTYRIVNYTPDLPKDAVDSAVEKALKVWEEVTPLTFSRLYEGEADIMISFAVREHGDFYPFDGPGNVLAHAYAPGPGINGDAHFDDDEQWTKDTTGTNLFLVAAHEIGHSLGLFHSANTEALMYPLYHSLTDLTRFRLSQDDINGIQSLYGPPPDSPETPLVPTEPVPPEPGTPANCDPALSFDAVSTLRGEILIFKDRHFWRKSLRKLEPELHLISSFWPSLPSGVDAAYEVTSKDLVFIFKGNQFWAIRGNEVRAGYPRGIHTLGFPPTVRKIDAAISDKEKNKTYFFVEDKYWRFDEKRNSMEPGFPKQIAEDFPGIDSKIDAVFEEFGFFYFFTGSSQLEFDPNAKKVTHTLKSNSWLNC

CC1c2ccc([N+](=O)[O-])c(O)c2C(=O)C2=C(O)C3(O)C(=O)C(C(N)=O)=C(O)C(N(C)C)C3C(O)C21 (centres unmarked) [Compound 1, 9-nitro-6-deoxy-5-hydroxytetracycline H2SO4]
body weight changes [1]: indistinguishable body weight changes | IC50 [2]: 258 µM | Surviving Number ([3]; 14 days post tumor implantation): 8 | Surviving Number ([3]; 17 days post tumor implantation): 8 | Surviving Number ([3]; 24 days post tumor implantation): 8 | Surviving Number ([3]; 27 days post tumor implantation): 8 | Surviving Number ([3]; 28 days post tumor implantation): 8 | Surviving Number ([3]; 29 days post tumor implantation): 6 | Surviving Number ([3]; 30 days post tumor implantation): 4 | Surviving Number ([3]; 34 days post tumor implantation): 4 | Surviving Number ([3]; 42 days post tumor implantation): 4 | surviving number after tumor implantation (in words) ([3]; compared to the control group): marked increase in surviving number | IC50 [4]: 267 µM | IC50 [5]: > 700 µM | IC50 [6]: 86 µM | IC50 [7]: 43 µM | IC50 [8]: 815 µM | percent inhibition, ARP-1 ([9]; 1 ug/mL): +9% | percent inhibition, ARP-1 ([9]; 10 ug/mL): +13% | percent inhibition, ARP-1 ([9]; 25 ug/mL): 1% | percent inhibition, PC-3 ML (Prostrate) [10]: 47^B percent and 24^B percent | percent inhibition, RPMI-8226 (Multiple Myeloma) ([11]; 1 ug/mL): 20% and 21^B percent | percent inhibition, RPMI-8226 (Multiple Myeloma) ([11]; 25 ug/mL): 15% and 29^B percent | percent inhibition, C8161 (Melanoma) [12]: 35^B percent and 56^B percent | percent inhibition, ARK [13]: 9% and 13% | percent inhibition, MDA-MB-231 (Breast) [14]: 20^B percent and 25^B percent
